Test results from patent US9228097B2, “Phase change inks” (Xerox Corporation, priority 2013, dated 2016).

Experiments:
[1] = Solubility testing in polyethylene wax (POLYWAX 655); format: physicochemical; settings: 1 g Solvent Black 3 or 2 g distearyl derivative in 50 g POLYWAX 655, 120° C. oil bath, stirred 3 h, then 1 h without stirring
Method: [drawing 41] molecular weight 892, were compared for solubility in polyethylene wax, a predominant component in phase change inks. 1 g of the Solvent Black 3 and 2 g of the distearyl derivative (because its molecular weight was about twice that of Solvent Black 3) were each dissolved in 50 g portions of POLYWAX 655 (Baker Petrolite) in 100 mL beakers equipped with magnetic stir bars. The solutions were placed in 120° C. oil baths and allowed to stir for 3 h, followed by cessation of stirring for 1 h, after which the solutions were poured into aluminum tins.

[2] = K-proofer print of the wax compositions on paper (darkness of the images as a sign of dissolved dye); format: physicochemical; settings: polyethylene wax compositions of the solubility test applied to paper with RK Print-Coat K-proofer

Structure (SMILES) | solubility in polyethylene wax (solids on bottom of beaker) [1] | darkness (optical density) of images versus composition containing Solvent Black 3 [2]
CC1(C)Nc2cccc3c(/N=N/c4ccc(/N=N/c5ccccc5)c5ccccc45)ccc(c23)N1 [Solvent Black 3, reference compound] | a substantial amount of the Solvent Black 3 appeared on the bottom of its beaker | 
CCCCCCCCCCCCCCCCCC1(CCCCCCCCCCCCCCCCC)Nc2cccc3c(/N=N/c4ccc(/N=N/c5ccccc5)c5ccccc45)ccc(c23)N1 [distearyl derivative] | almost no solids appeared on the bottom of the beaker | considerably darker
